The record followed here is US20250041279A1, “THERAPEUTIC MEDICINE FOR HEART DISEASE OR SKELETAL MUSCLE DISEASE” (SHIONOGI & CO., LTD., priority 2021, published 2025).

One data set concerns C57BL/6JJcl mice. Kind of data set: Plasma triglyceride concentration in mice fed ultra-high fat, choline-deficient, methionine-lowered diet. It is filed as in vivo. Particulars: for Plasma triglyceride concentration: bid, mean ± standard error; for plasma triglyceride concentration versus vehicle-administered group: mice fed ultra-high fat, choline-deficient, methionine-lowered diet, repeated oral b.i.d. The method, then:
Six-week-old male C57BL/6JJcl mice were fed an ultra-high fat, choline-deficient, methionine-lowered diet (60 kcal % fat content, using lard, choline-deficient, methionine-lowered (0.1%)), and at the same time, the compound of the present invention was suspended in a vehicle (0.5% methylcellulose aqueous solution) so as to have a dose of 3 to 45 mg/kg/10 mL, and orally repeatedly administered (b.i.d.) for 8 weeks. Blood was collected from the tail vein during the repeated administration period, and biochemical parameters in plasma were measured.

A short description of data set [1]: Metabolic stability test, rat. It is filed as in vitro ADME. Particulars: 30 minutes.
The next data set deals with recombinant human ACC1 (Homo sapiens (Human), UniProt Q13085). Kind of data set: Measurement of inhibitory activity of human ACC1 (MALDI-TOF MS). It is filed as biochemical. As to conditions: read-out: IC50 hACC1. The source says: A cDNA encoding human ACC1 protein (1 amino acid residue to 2346 amino acid residues from the N-terminus) was cloned from a human liver cDNA library (BioChain Institute Inc.), myc tag and His-tag sequences were introduced at the 3′ end, and then inserted into pIEXBAC3 (Novagen). A recombinant baculovirus was produced in accordance with the protocol for Flash BACGOLD (Oxford Expression Technologies Ltd.), and Sf-9 cells were infected therewith to express human ACC1 protein. The recovered cells were crushed, filtered through a filter, and then subjected to Ni affinity chromatography and anion exchange chromatography. Fractions containing human ACC1 protein were collected to obtain recombinant human ACC1.
The recombinant human ACC1 and the recombinant human ACC2 obtained from the above Preparation Examples were preincubated in an assay buffer (50 mM HEPES-KOH (pH 7.4), 10 mM magnesium chloride, 6 to 10 mM potassium citrate, 4 mM glutathione reduced form, and 1.5 mg/ml bovine serum albumin) for 1 hour. Then, 5 μL of the pre-incubated enzyme solution and 5 μL of a substrate solution (50 mM HEPES-KOH (pH 7.4), 1 mM ATP, 0.8 mM acetyl-CoA, and 25 to 50 mM potassium bicarbonate) were added to a 384-well microplate into which 0.2 μl of each of solutions of the compound of the present invention (DMSO had been dispensed, and the mixture was centrifuged and shaken, and then incubated in a wet box at room temperature for 1 to 3 hours. After incubation, the enzymatic reaction was stopped by addition of EDTA, and then the sample was co-crystallized with an α-cyano-4-hydroxy cinnamic acid (CHCA) matrix on a MALDI target plate, and measurement was performed in a reflector negative mode using a matrix-assisted laser desorption ionization-time-of-flight mass spectrometer (MALDI-TOF MS). Deprotonated ions of the substrate acetyl-CoA (AcCoA) and the reaction product malonyl-CoA (MalCoA) were detected, and the intensity of each signal was used to calculate a conversion rate to malonyl-CoA or succinyl-CoA, i.e., intensity of [MalCoA-H]—/(intensity of [MalCoA-H]-+intensity of [AcCoA.H].). […] The potassium citrate concentration in the assay buffer, the potassium bicarbonate concentration in the substrate solution, and the incubation time were adjusted within the above concentrations or reaction times for each lot of the enzyme to be used.

In another data set the test system is Crl:CD (SD) rats. The experiment in a line: Influence on platelet count in SD rats. It is filed as in vivo. Particulars: for Platelet count: mean ± standard deviation; for effect on platelet count: within the dose range used for evaluation. The method, then: The compound of the present invention was suspended in a 0.5% methylcellulose solution so as to have a dose of 50 to 600 mg/kg/day, and was orally repeatedly administered for 4 days to 6-week-old male Crl:CD (SD) rats under non-fasted conditions. On day 5 from the start of administration, blood was collected from the abdominal vena cava under anesthesia, and […]. A platelet count in plasma was evaluated with an automatic hemocytometer.

Data set [2] can be described thus: Metabolic stability test, human liver microsomes. Format: in vitro ADME. As to conditions: 37° C., 30 minutes, NADPH. As to the method:
Commercially available pooled human liver microsomes were reacted with the compound of the present invention for a given time. A residual rate was calculated by comparison between the reacted sample and the unreacted sample to evaluate a degree at which the compound of the present invention is metabolized in the liver.
The compound was reacted at 37° C. for 0 minutes or 30 minutes in the presence of 1 mmol/L NADPH in 0.2 mL of a buffer (50 mmol/L Tris-HCl pH 7.4, 150 mmol/L potassium chloride, and 10 mmol/L magnesium chloride) containing 0.5 mg protein/mL of the human liver microsomes (oxidative reaction). After the reaction, 50 μL of the reaction solution was added to 100 μL of a solution of methanol/acetonitrile=1/1 (v/v) and mixed, and the mixture was centrifuged at 3000 rpm for 15 minutes. The compound of the present invention in the centrifuged supernatant was quantified by LC/MS/MS or solid-phase extraction (SPE)/MS. The amount of the compound of the present invention remained after the reaction was calculated with the amount of the compound at 0 minutes of the reaction defined as 100%.

Another data set has as its system Atgl knockout mice. The experiment in a line: Long-chain fatty acid metabolizing ability in Atgl knockout mouse myocardium (BMIPP SPECT/CT wash out rate). It is filed as in vivo. The method, then:
Atgl (adipose-triglyceride lipase) knockout mice are known as non clinical models of TGCV. Atgl knockout mice (KO mice) deficient in the Atgl gene were each produced by a known method.
The compound of the present invention was suspended in a 0.5% HPMC aqueous solution so that the dose of the same was 30 or 45 mg/kg/10 mL, and orally administered to 6 to 7-week-old male Atgl knockout mice on the day before and the day when the long chain fatty acid metabolizing ability was measured. On the day of measurement of long-chain fatty acid metabolizing ability, 14.6 MBq/mouse of iodine-123-8 methyl iodophenyl-pen-tadecanoic acid (BMIPP) was administered via the tail vein. At 1 hour and 4 hours after administration, the mice were imaged by single-photon emission computed tomography (SPECT)/CT under anesthesia, and the radioactivity of the administered BMIPP in the myocardium was measured. The metabolism of long-chain fatty acids in the myocardium was calculated as a wash out rate by the following formula.

As to `C[C@@H](COC1CCC(Oc2nc3c(F)cc(OC4CC4)cc3n2C)CC1)NC(N)=O` (stereo partly shown) [Compound I-12], the Plasma triglyceride concentration in the data set on C57BL/6JJcl mice (3 mg/kg, 2 weeks) worked out at 32.9 ± 1.3 mg/dL; with C57BL/6JJcl mice (3 mg/kg, 4 weeks), 22.4 ± 2.1 mg/dL; in the data set on C57BL/6JJcl mice (3 mg/kg, 7 weeks), 27.2 ± 1.5 mg/dL; in the data set with C57BL/6JJcl mice (10 mg/kg, 2 weeks), 30.4 ± 2.2 mg/dL; in the data set with C57BL/6JJcl mice (10 mg/kg, 4 weeks) it was 21.5 ± 1.8 mg/dL; in the data set with C57BL/6JJcl mice (10 mg/kg, 7 weeks), 22.1 ± 1.9 mg/dL. The Plasma triglyceride concentration with C57BL/6JJcl mice (30 mg/kg, 2 weeks) is listed as 23.1 ± 2.5 mg/dL; in the data set on C57BL/6JJcl mice (30 mg/kg, 4 weeks) it was 11.1 ± 1.1 mg/dL; in the data set on C57BL/6JJcl mice (30 mg/kg, 7 weeks) it was 16.2 ± 1.6 mg/dL. Moreover, the “plasma triglyceride concentration versus vehicle-administered group” value in the data set on C57BL/6JJcl mice is reported as “lower than that in the vehicle-administered group”. Further, the “Remaining amount of compound, Rat” value in data set [1] was 85.5%. Also, the IC50 at recombinant human ACC1 came out at 6.9 µM. The Platelet count was found to be 987 ± 86 in the data set with Crl:CD (SD) rats (100 mg/kg/day oral for 4 days), 988 ± 43 with Crl:CD (SD) rats (300 mg/kg/day oral for 4 days) and 1061 ± 85 with Crl:CD (SD) rats (600 mg/kg/day oral for 4 days). In addition, in the data set on Crl:CD (SD) rats, the “effect on platelet count” value is on record as “did not affect”. In addition, the “Remaining amount of compound, Human” value in data set [2] is 83.3%. In the data set with Atgl knockout mice (30 mg/kg/10 mL oral, p=0.096, Welch's t test), the “long chain fatty acid metabolizing ability in myocardium (wash out rate)” value is reported as “tended to improve”.
In the case of `CC(=O)N[C@@H](C)CCC1OCC(Oc2nc3c(F)c(OC4CC4)ccc3n2C)CO1` (stereo partly shown) [Compound I-13], the Plasma triglyceride concentration in the data set with C57BL/6JJcl mice (15 mg/kg, 0 weeks) was 61.6 ± 3.1 mg/dL; in the data set with C57BL/6JJcl mice (15 mg/kg, 1 week), 23.7 ± 1.0 mg/dL; in the data set on C57BL/6JJcl mice (15 mg/kg, 3 weeks) it was 19.8 ± 1.2 mg/dL; in the data set with C57BL/6JJcl mice (15 mg/kg, 5 weeks), 19.0 ± 1.7 mg/dL; with C57BL/6JJcl mice (15 mg/kg, 7 weeks), 18.8 ± 1.2 mg/dL; in the data set on C57BL/6JJcl mice (45 mg/kg, 0 weeks), 63.6 ± 3.7 mg/dL. Also, the Plasma triglyceride concentration is reported as 22.4 ± 2.5 mg/dL in the data set on C57BL/6JJcl mice (45 mg/kg, 1 week); 18.9 ± 1.4 mg/dL in the data set on C57BL/6JJcl mice (45 mg/kg, 3 weeks); 16.5 ± 1.7 mg/dL in the data set with C57BL/6JJcl mice (45 mg/kg, 5 weeks); 15.1 ± 1.0 mg/dL in the data set with C57BL/6JJcl mice (45 mg/kg, 7 weeks). In addition, in the data set on C57BL/6JJcl mice, the “plasma triglyceride concentration versus vehicle-administered group” value is on record as “lower than that in the vehicle-administered group”. The “Remaining amount of compound, Rat” value in data set [1] was 87%. Besides, the IC50 on recombinant human ACC1 was 0.91 µM. In addition, the Platelet count turned out to be 1079 ± 73 in the data set with Crl:CD (SD) rats (50 mg/kg/day oral for 4 days), 1048 ± 65 in the data set with Crl:CD (SD) rats (100 mg/kg/day oral for 4 days) and 1122 ± 87 in the data set with Crl:CD (SD) rats (200 mg/kg/day oral for 4 days). Moreover, the “effect on platelet count” value in the data set on Crl:CD (SD) rats is reported as “did not affect”. For the same compound, the “Remaining amount of compound, Human” value in data set [2] was determined as 95.4%. Moreover, the “long-chain fatty acid metabolizing ability in myocardium (wash out rate)” value in the data set on Atgl knockout mice (45 mg/kg/10 mL oral, p<0.05, Welch's t test) was “significant improving effect”.
